Assay results: patent US20040110821A1, “GAL3 receptor antagonists for the treatment of affective disorders” (priority 2002, published 2004)
Where two headings read alike, the source gives them in different places. Marks after values point to notes of the source that are not given here.

Experiments:
[1] = molecular target: T1, human GAL3 receptor (Homo sapiens, UniProt O60755); assay: Radioligand binding at cloned human GAL3 receptor; settings: cloned human GAL3 receptor
T1 construct: expressed in transfected cells
T1 sequence (O60755 1-368): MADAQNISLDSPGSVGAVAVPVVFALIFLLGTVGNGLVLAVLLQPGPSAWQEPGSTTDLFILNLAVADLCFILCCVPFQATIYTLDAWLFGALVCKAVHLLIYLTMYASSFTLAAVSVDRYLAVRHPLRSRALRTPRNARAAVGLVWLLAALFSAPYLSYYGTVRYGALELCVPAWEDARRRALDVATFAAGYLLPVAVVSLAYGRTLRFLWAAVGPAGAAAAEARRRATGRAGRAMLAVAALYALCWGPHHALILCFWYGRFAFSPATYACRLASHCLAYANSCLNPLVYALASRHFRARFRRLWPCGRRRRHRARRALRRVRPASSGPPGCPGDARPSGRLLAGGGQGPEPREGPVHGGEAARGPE
Procedure: (§1) The present invention provides for a method of determining the binding affinity of a GAL3 antagonist, wherein the GAL3 antagonist is dissolved in a “suitable solvent”. A “suitable solvent” means one which permits the measurement of binding affinity of the GAL3 antagonist to the human GAL3 receptor at concentrations less than 1 μM, preferably less than 100 nM. Examples of solvents include, but are not limited to, DMSO, ethanol, N,N-dimethylacetamide, or water. For indolones, the preferred solvent is 3% DMSO (final concentration in the assay). For pyrimidines, the preferred solvent is 1% ethanol/0.09% polypuronic acid F-127 (final concentration in the assay). For any other type of compounds, the preferred solvent is the solvent which permits the measurement of binding affinity of a GAL3 antagonist at the lowest concentration. Once a suitable solvent is ascertained for the binding assay of the human GAL3 receptor, the same solvent is used in assays to determine the binding affinity for instance, at the GAL1 receptor.
(§2) The binding properties of the pyrimidines of the present invention were evaluated at the cloned human galanin receptors, GAL1, GAL2, and GAL3, using protocols described herein.
(§3) The binding properties of the indolones of the present invention were evaluated at the cloned human galanin receptors, GAL1, GAL2, and GAL3, using protocols described herein.
(§4) LM(tk-) cells were stably transfected with the human GAL1 or GAL3 receptor. CHO cells were stably transfected with the human GAL2 receptor.
(§5) cDNAs for the human and rat GAL1, and human and rat GAL3 receptors were transfected with a G-418 resistant gene into the mouse fibroblast LM(tk-) cell line by a calcium phosphate transfection method (Cullen, 1967). Stably transfected cells were selected with G-418. Human and rat GAL2 receptors were similarly transfected into CHO cells.
(§6) Membranes were harvested from stably transfected LM(tk-) cells. Adherent cells were washed twice in ice-cold phosphate buffered saline (138 mM NaCl, 8.1 mM Na2HPO4, 2.5 mM KCl, 1.2 mM KH2PO4, 0.9 mM CaCl2, 0.5 mM MgCl2, pH 7.4) and lysed by sonication in ice-cold sonication buffer (20 mM Tris-HCl, 5 mM EDTA, pH 7.7). Large particles and debris were cleared by low speed centrifugation (200×g, 5 min, 4° C.). Membranes were collected from the supernatant fraction by centrifugation (32,000×g, 18 min, 4° C.), washed with ice-cold hypotonic buffer, and collected again by centrifugation (32,000×g, 18 min, 4° C.). The final membrane pellet was resuspended by sonication into a small volume of ice-cold binding buffer (−1 ml for every 5 plates: 10 mM NaCl, 20 mM HEPES, 0.22 mM KH2PO4, 1.26 mM CaCl2, 0.81 mM MgSO4, pH 7.4). Protein concentration was measured by the Bradford method (Bradford, 1976) using Bio-Rad Reagent, with bovine serum albumin as a standard. Membranes were held on ice for up to one hour and used fresh, or flash frozen and stored in liquid nitrogen. Membranes were prepared similarly from CHO cells.
(§7) Galanin Receptors: Binding assays were performed according to the following published methods: human GAL3 (PCT International Publication No. WO 98/15570), human GAL1 (PCT International Publication No. WO 95/2260) human GAL2 (PCT International Publication No. WO 97/26853).
(§8) Binding data were analyzed using nonlinear regression and statistical techniques available in the GraphPAD Prism package (San Diego, Calif.). Enzymatic assay data were derived from a standard curve of reference compound data.

[2] = molecular target: T2, human GAL2 receptor (Homo sapiens, UniProt O43603); assay: Radioligand binding at cloned human GAL2 receptor; settings: pyrimidines, Tables 1-3, read-out: Ki (nM) GalR2
T2 construct: expressed in transfected cells
T2 sequence (O43603 1-387): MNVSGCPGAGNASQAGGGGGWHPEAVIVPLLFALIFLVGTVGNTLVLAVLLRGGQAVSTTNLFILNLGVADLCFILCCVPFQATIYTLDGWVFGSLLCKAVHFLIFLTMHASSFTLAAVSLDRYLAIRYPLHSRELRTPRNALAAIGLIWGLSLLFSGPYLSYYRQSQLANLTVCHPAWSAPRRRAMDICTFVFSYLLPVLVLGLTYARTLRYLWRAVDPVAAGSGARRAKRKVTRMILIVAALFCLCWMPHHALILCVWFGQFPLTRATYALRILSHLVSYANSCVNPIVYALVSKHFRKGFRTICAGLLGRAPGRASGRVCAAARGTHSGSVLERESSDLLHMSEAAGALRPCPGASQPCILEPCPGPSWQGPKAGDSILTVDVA
Procedure: as §1, §2, §3, §4, §5, §6, §7, §8

[3] = molecular target: T3, human GAL1 receptor (Homo sapiens, UniProt P47211); assay: Radioligand binding at cloned human GAL1 receptor; settings: pyrimidines, Tables 1-3, read-out: Ki (nM) GalR1
T3 construct: expressed in transfected cells
T3 sequence (P47211 1-349): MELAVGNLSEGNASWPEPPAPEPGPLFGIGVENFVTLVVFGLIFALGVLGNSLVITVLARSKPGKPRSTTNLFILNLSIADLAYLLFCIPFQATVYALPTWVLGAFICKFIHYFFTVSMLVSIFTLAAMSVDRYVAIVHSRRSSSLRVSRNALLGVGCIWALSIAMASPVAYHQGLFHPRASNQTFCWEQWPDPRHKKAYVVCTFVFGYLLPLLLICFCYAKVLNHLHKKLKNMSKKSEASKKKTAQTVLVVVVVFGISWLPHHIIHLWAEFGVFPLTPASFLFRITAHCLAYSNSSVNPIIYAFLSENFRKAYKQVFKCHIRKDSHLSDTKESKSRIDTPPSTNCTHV
Procedure: as §1, §2, §3, §4, §5, §6, §7, §8

[4] = tested on: Male albino Sprague-Dawley rats; assay: Rat Social Interaction Test (SIT); assay type: in vivo
Procedure: Rats were allowed to acclimate to the animal care facility for 5 days and were housed singly for 5 days prior to testing. Animals were handled for 5 minutes per day. The design and procedure for the Social Interaction Test was carried out as previously described by Kennett, et al. (1997). On the test day, weight matched pairs of rats (±5%), unfamiliar to each other, were given identical treatments and returned to their home cages. Animals were randomly divided into 5 treatment groups, with 5 pairs per group, and were given one of the following i.p. treatments: Example 92 (10, 30 or 100 mg/kg), vehicle (1 ml/kg) or chlordiazepoxide (5 mg/kg). Dosing was 1 hour prior to testing. Rats were subsequently placed in a white perspex test box or arena (54×37×26 cm), whose floor was divided up into 24 equal squares, for 15 minutes. An air conditioner was used to generate background noise and to keep the room at approximately 74° F. All sessions were videotaped using a JVC camcorder (model GR-SZ1, Elmwood Park, N.J.) with either TDK (HG ultimate brand) or Sony 30 minute videocassettes. All sessions were conducted between 1:00-4:30 P.M. Active social interaction, defined as grooming, sniffing, biting, boxing, wrestling, following and crawling over or under, was scored using a stopwatch (Sportsline model no. 226, 1/100 sec. discriminability). The number of episodes of rearing (animal completely raises up its body on its hind limbs), grooming (licking, biting, scratching of body), and face washing (i.e. hands are moved repeatedly over face), and number of squares crossed were scored. Passive social interaction (animals are lying beside or on top of each other) was not scored. All behaviors were assessed later by an observer who was blind as to the treatment of each pair. At the end.of each test, the box was thoroughly wiped with moistened paper towels.
Male albino Sprague-Dawley rats (Taconic Farms, N.Y.) were housed in pairs under a 12 hr light dark cycle (lights on at 0700 hrs.) with free access to food and water.
Example 92 was dissolved in 100% DMSO (Sigma Chemical Co., St. Louis, Mo.). Chlordiazepoxide (purchased from Sigma Chemical Co., St. Louis, Mo.) was dissolved in double distilled water. The vehicle consisted of 50% DMSO (v/v). All drug solutions were made up 10 minutes prior to injection and the solutions were discarded.
Example 34 was dissolved in 5% lactic acid, v/v. The vehicle consisted of 100% dimethylacetamide (DMA) and this was used to make up all drug solutions. All drug solutions were made up fresh each day and any unused solutions were discarded at the end of the test day. The volume of drug solution administered was 1 ml/kg.
The social interaction data (time interacting, rearing and squares crossed) were subjected to a randomized, one-way ANOVA and post hoc tests conducted using the Student-Newman-Keuls test. The data were subjected to a test of normality (Shapiro-Wilk test). The data were analyzed using the GBSTAT program, version 6.5 (Dynamics Microsystems, Inc., Silver Spring, Md., 1997). All data are presented as means ±S.E.M.

[5] = pyrimidines, Tables 1-3, read-out: Ki (nM) GalR3
[6] = indolones, Table 4a, read-out: Ki (nM) Gal3
[7] = pyrimidines, Table 3a, read-out: Ki (nM) Gal3

C[C@H]1CC2CC([C@@H]1Nc1cc(N(C)C)nc(Nc3ccccc3)n1)C2(C)C (some centres unmarked) [Example 71]
Ki [1, 5]: 72 nM | Ki [2]: 944 nM

CN(CCc1c[nH]c2ccccc12)c1nc(NCCc2ccccc2)cc(N2CCCCC2)n1 [Example 12]
Ki [1, 5]: 322 nM | Ki [2]: 2000 nM | Ki [3]: > 5000 nM

O=C1/C(=N\c2ccc(Oc3ccccc3)cc2)c2ccccc2N1c1ccsc1 [Example 268, 3Z)-3-[(4-PHENOXYPHENYL)IMINO]-1-(3-THIENYL)-1,3-DIHYDRO-2H-INDOL-2-ONE]
Ki [1, 6]: 57 nM

CN(C)c1cc(Nc2ccccc2Cl)nc(N2CCN(c3ccccn3)CC2)n1 [Example 195]
Ki [1, 7]: 388 nM

N^2-[2-(1H-INDOL-3-YL)ETHYL]-N^2,N^4,N^4-TRIMETHYL-(2-NAPHTHYL)-6-(1-PIPERIDINYL)-2,4,6-PYRIMIDINETRIAMINE [Example 79]
Ki [1, 5]: 190 nM | Ki [2]: 1660 nM | Ki [3]: 3800 nM

CN(C)c1cc(N[C@@H]2C[C@H]3CC[C@]2(C)C3(C)C)nc(N2CCN(Cc3ccccc3)CC2)n1 [Example 153]
Ki [1, 7]: 55 nM

CN(C)c1cc(NC23CC4CC(CC2C4)C3)nc(N2CCN(Cc3ccccc3)CC2)n1 [Example 137]
Ki [1, 7]: 124 nM

CN(C)c1cc(Nc2ccc(Cl)cc2C(F)(F)F)nc(N2CCN(Cc3ccccc3)CC2)n1 [Example 239]
Ki [1, 7]: 59 nM

Cc1ccc(/N=C2\C(=O)N(c3ccccc3)c3ccccc32)c(Cl)c1 [Example 286]
Ki [1, 6]: 38 nM

CNC1=Nc2ccc(Cl)cc2C(c2ccccc2)=[N+]([O-])C1 [Chlordiazepoxide, chlordiazepoxide, reference compound]
Social Interaction (sec) ([4]; 5 mg/kg i.p., 1 hour before 15 min test, unfamiliar rats): 188 ± 15^b sec | Social Interaction (sec) ([4]; 5 mg/kg p.o., one hour before test, unfamiliar cage mates in a familiar arena): 122 ± 18^$ sec

O=C1/C(=N\c2ccc(-c3cccc(C(F)(F)F)c3)cc2)c2ccccc2N1c1ccccc1 [Example 305, (3Z)-1-PHENYL-3-{[3′-(TRIFLUOROMETHYL)[1,1′-BIPHENYL]-4-YL]IMINO}-1,3-DIHYDRO-2H-INDOL-2-ONE]
Ki [1, 6]: 638 nM
